Measurements reported in patent publication US20100204249A1, “SECRETORY PHOSPHOLIPASE A2 (SPLA2) INHIBITOR AND NIACIN DRUG COMPOSITIONS AND METHODS FOR TREATING CARDIOVASCULAR DISEASE AND DYSLIPIDEMIA” (priority 2009, published 2010).

Experiments:
[1] = system: sPLA2; settings: cited from earlier work
[2] = system: human subjects with stable CAD; assay: Change in HDL levels at eight weeks, A-002 and/or niacin drugs, subjects with stable CAD; settings: for Baseline Mean HDL: before trial period; for Baseline Mean HDL / Week 8 Mean HDL: stable CAD; for Difference versus placebo (HDL % change) / % change versus baseline (HDL) / Week 8 Mean HDL: week 8; for % change versus baseline (HDL): ANCOVA subject-specific percent change from baseline; for Change from baseline (mean HDL): week 8 versus baseline
Excerpt: (§1) 46 subjects from the above once-a-day and twice-a-day A-002 studies were identified as receiving niacin drugs before and during the trial period. 45 of these 46 subjects were also receiving one or more statins before and during the trial period. The niacin drugs included niacin, nicotinic acid, acipimox, ERN (Niaspan®), Niaspan® in combination with lovastatin (Advicor®), and/or Niaspan® in combination with simvastatin (Simcor®). Of the 46 niacin subjects, twelve were concomitantly administered placebo rather than A-002 (i.e., niacin drug only), four were administered 100 mg of A-002 daily, five were administered 200 mg of A-002 daily, five were administered 250 mg of A-002 daily, thirteen were administered 500 mg of A-002 daily, and seven were administered 1000 mg of A-002 daily.
(§2) The change from baseline HDL and TG levels at eight weeks was determined for each of the subjects receiving niacin drugs, and the percentage increase or decrease in these levels was determined using an analysis of covariance (ANCOVA) model that calculated subject-specific percent change from baseline.

[3] = system: human subjects with stable CAD; settings: oral, once or twice a day, total daily 100-1000 mg, all dosages tested; 361 subjects; cited from earlier work
[4] = system: human subjects with stable CAD; assay: Change in TG levels at eight weeks, A-002 and/or niacin drugs, subjects with stable CAD; settings: for Baseline Mean TG: before trial period; for Baseline Mean TG / Week 8 Mean TG: stable CAD; for Difference versus placebo (TG % change) / % change versus baseline (TG) / Week 8 Mean TG: week 8; for % change versus baseline (TG): ANCOVA subject-specific percent change from baseline; for Change from baseline (mean TG): week 8 versus baseline
Excerpt: as §1, §2

[5] = cited from earlier work
[6] = eight weeks, magnitude of decrease

Structure (SMILES) | type of sPLA2 inhibition [1] | Baseline Mean HDL [2] [mg/dL] | decrease in HDL versus baseline [2, 6] [%] | Difference versus placebo (HDL % change) [2] | % change versus baseline (HDL) [2] [%] | Week 8 Mean HDL [2] [mg/dL] | Change from baseline (mean HDL) [2] [mg/dL] | serum LDL, LDL particle, small LDL particle, oxidized LDL, total cholesterol, ApoB, TG, sPLA2, CRP, and IL-6 levels [3] | Baseline Mean TG [4] [mg/dL] | Difference versus placebo (TG % change) [4] | % change versus baseline (TG) [4] | Week 8 Mean TG [4] [mg/dL] | Change from baseline (mean TG) [4] | terminal half-life (t1/2) ([5]; in vivo) | absorption and hydrolysis to the active A-001 molecule ([5]; prodrug) | decrease in HDL versus placebo [2, 6] [%] | increase in TG versus placebo ([4]; eight weeks, magnitude of increase) [%]
CCc1c(C(=O)C(N)=O)c2c(OCC(=O)O)cccc2n1Cc1ccccc1 [A-001] | competitive inhibitor |  |  |  |  |  |  |  |  |  |  |  |  |  |  |  | 
CCc1c(C(=O)C(N)=O)c2c(OCC(=O)OC)cccc2n1Cc1ccccc1 [A-002, [[3-(2-Amino-1,2-dioxoethyl)-2-ethyl-1-(phenylmethyl)-1H-indol-4-yl]oxy]acetic acid methyl ester] |  | 47.80 | 2.0 | +0.3% | −2.0 | 46.28 | -1.52 | decrease | 165.83 | −2.6% | −3.7% | 159.04 | -6.79 mg/dL | approximately ten | rapidly absorbed and hydrolyzed |  | 
O=C(O)c1cccnc1 [Niacin, pyridine-3-carboxylic acid] |  | 50.67 | 6.2 | −3.9% | −6.2 | 46.75 | -3.92 |  | 129.25 | +3.4% | +9.7% | 133.42 | +4.17 mg/dl |  |  | 3.9 | 3.4
